Legend:
Format in all cases: cell-based, human
Con-NCI-H82 cell = assay: CellTiter-Glo cell viability, Con-NCI-H82 cell (empty-vector control); settings: Homo sapiens, NCI-H82, NCI-H82 transfected with empty virus vector (control), intracellular ATP, read-out: inhibitory effect on Con-NCI-H82 (IC50)
ov-NNMT NCI-H82 cell = assay: CellTiter-Glo cell viability, ov-NNMT NCI-H82 cell (NNMT overexpressed); settings: Homo sapiens, NCI-H82, NCI-H82 overexpressing NNMT protein, intracellular ATP, read-out: inhibitory effect on OV-NNMT NCI-H82 (IC50)
sh-DNMT1 NCI-H82 cell = assay: CellTiter-Glo cell viability, sh-DNMT1 NCI-H82 cell (DNMT1 knocked down); settings: Homo sapiens, NCI-H82, NCI-H82 with DNMT1 knocked down by shRNA, intracellular ATP, read-out: inhibitory effect on sh-DNMT1 NCI-H82 (IC50)

Row | Structure (SMILES) | IC50 (Con-NCI-H82 cell) [µM] | IC50 (ov-NNMT NCI-H82 cell) [µM] | IC50 (sh-DNMT1 NCI-H82 cell) [µM]
1 | COc1ccc2c(c1OCCCCOc1ccccc1)C(C)N1CCc3cc4c(cc3C1=C2)OCO4 (stereo not drawn) [AB31881] | 2.01 | 4.04 | 3.98
2 | CCCCN1CCN(c2c(OC)ccc3c2C(C(Cl)(Cl)Cl)N2CCc4cc5c(cc4C2=C3)OCO5)CC1 (stereo not drawn) [AB35445] | 5.55 | 13.4 | 16.4
3 | CC1c2c(ccc3c2OCO3)C(CCCc2ccccc2)=C2c3cc4c(cc3CCN21)OCO4 (stereo not drawn) [AB35427] | 0.56 | 1.82 | 3.24
4 | COc1ccc2c(c1OCCNC(=O)OC(C)(C)C)C(C(Cl)(Cl)Cl)N1CCc3cc4c(cc3C1=C2)OCO4 (stereo not drawn) [AB35416] | 2.31 | 5.23 | 6.35
5 | ClC(Cl)(Cl)C1c2c(ccc3c2OCO3)C(CCCc2ccccc2)=C2c3cc4c(cc3CCN21)OCO4 (stereo not drawn) [AB35428] | 4.23 | 10.2 | 15.4
6 | COc1ccc2cc3n(c(=O)c2c1OC)CCc1cc2c(cc1-3)OCO2 [AB36496] | 12.9 | 10.1 | 12.6
7 | COc1ccc2c(c1OC)C(n1cccc1)N1CCc3cc4c(cc3C1=C2)OCO4 (stereo not drawn) [AB36520] | 2.56 | 2.42 | 2.62
8 | COc1ccc2c(c1OCCCCl)C(C1CCC1)N1CCc3cc4c(cc3C1=C2)OCO4 (stereo not drawn) [AB35490] | 2.68 | 7.52 | 8.46
9 | CCC1=C2c3cc4c(cc3CCN2C(C(Cl)(Cl)Cl)c2c1ccc1c2OCO1)OCO4 (stereo not drawn) [AB36426] | 18.6 | 18.1 | 18.8
10 | COc1ccc2c(c1OCCNC(=O)OC(C)(C)C)C(C)N1CCc3cc4c(cc3C1=C2)OCO4 (stereo not drawn) [AB35424] | 5.02 | 11.2 | 10.8
11 | COc1ccc2c(c1NCCc1ccccc1)C(C(Cl)(Cl)Cl)N1CCc3cc4c(cc3C1=C2)OCO4 (stereo not drawn) [AB35486] | 0.25 | 1.34 | 2.56
12 | COc1ccc2c(c1OCCF)CN1CCc3cc4c(cc3C1=C2)OCO4 [AB35599] | 1.38 | 3.43 | 6.42
13 | CCCCOc1c(OC)ccc2c1C(C(Cl)(Cl)Cl)N1CCc3cc4c(cc3C1=C2)OCO4 (stereo not drawn) [AB35494] | 0.43 | 2.12 | 1.96
14 | COc1ccc2c(c1OC)C(c1ccccc1)N1CCc3cc4c(cc3C1=C2)OCO4 (stereo not drawn) [AB36467] | 3.92 | 9.32 | 13.1
15 | COc1ccc2c(c1OCCCCCCBr)C(C1CCCC1)N1CCc3cc4c(cc3C1=C2)OCO4 (stereo not drawn) [AB35458] | 1.56 | 4.12 | 5.32
16 | CCCCCCC1=C2c3cc4c(cc3CCN2C(C2CCCC2)c2c1ccc(OC)c2OC)OCO4 (stereo not drawn) [AB35489] | 0.82 | 3.78 | 3.56
17 | COc1ccc2c(c1N1CCC(NC(=O)OC(C)(C)C)CC1)C(C(Cl)(Cl)Cl)N1CCc3cc4c(cc3C1=C2)OCO4 (stereo not drawn) [AB35465] | 2.69 | 9.32 | 8.84
18 | COc1ccc2c(c1OCCCCl)C(C)N1CCc3cc4c(cc3C1=C2)OCO4 (stereo not drawn) [AB35456] | 2.36 | 6.72 | 8.42
19 | CCC(CC)COc1c(OC)ccc2c1C(C(Cl)(Cl)Cl)N1CCc3cc4c(cc3C1=C2)OCO4 (stereo not drawn) [AB35521] | 0.61 | 2.32 | 3.14
20 | COc1ccc2c(c1OC)C(C1CCCCC1=O)N1CCc3cc4c(cc3C1=C2)OCO4 (stereo not drawn) [AB36525] | 3.86 | 3.53 | 3.96
21 | COc1ccc2c(c1OCCCCCCCl)C(C)N1CCc3cc4c(cc3C1=C2)OCO4 (stereo not drawn) [AB31888] | 2.26 | 4.64 | 6.12
22 | CCC1=C2c3cc4c(cc3CCN2C(C(Cl)(Cl)Cl)c2c1ccc(OC)c2OC)OCO4 (stereo not drawn) [AB35488] | 1.98 | 7.56 | 9.32
23 | CCCCCC1=C2c3cc4c(cc3CCN2C(C2CCCC2)c2c1ccc(OC)c2OC)OCO4 (stereo not drawn) [AB35522] | 1.36 | 3.68 | 5.64
24 | CCCCCCC1=C2c3cc4c(cc3CCN2C(C(Cl)(Cl)Cl)c2c1ccc(OC)c2OC)OCO4 (stereo not drawn) [AB35508] | 0.74 | 3.12 | 2.98
25 | CCCCCCOc1c(OC)ccc2c1C(C(Cl)(Cl)Cl)N1CCc3cc4c(cc3C1=C2)OCO4 (stereo not drawn) [AB35487] | 0.49 | 1.98 | 3.23
26 | COc1ccc2c(c1OC)C(C(Cl)(Cl)Cl)N1CCc3cc4c(cc3C1=C2CCCCCCBr)OCO4 (stereo not drawn) [AB35501] | 0.87 | 2.12 | 2.56
27 | COc1ccc2c(c1OC)C(c1ccncc1)N1CCc3cc4c(cc3C1=C2)OCO4 (stereo not drawn) [AB36488] | 8.23 | 8.06 | 7.83
28 | CCCCCC1=C2c3cc4c(cc3CCN2C(C(Cl)(Cl)Cl)c2c1ccc(OC)c2OC)OCO4 (stereo not drawn) [AB35418] | 0.53 | 1.26 | 2.25

Reference: patent publication US12502386B2, “Nitrogen-containing heterocyclic compound and use thereof” (SHANGHAI SHIJIANG BIOTECHNOLOGY CO., LTD, priority 2022, dated 2025)
